Reference: paper PMC5218480 (PLoS ONE, 2017)

System: MV-4-11 cells
Test: Gene expression microarray analysis (Affymetrix PrimeView) and GSEA
Type: cell-based, human
Parameters: RFU PODN (11730768_x_at) / Fold change /veh PODN (11730768_x_at) / RFU LINC00158 (11744669_a_at) / Fold change /veh LINC00158 (11744669_a_at) / RFU DUSP10 (11751237_a_at) / Fold change /veh DUSP10 (11751237_a_at) / RFU ID3 (11757404_x_at) / Fold change /veh ID3 (11757404_x_at) / RFU PLEKHG5 (11737974_s_at) / Fold change /veh PLEKHG5 (11737974_s_at) / RFU LRRC4B (11730491_at) / Fold change /veh LRRC4B (11730491_at) / RFU GIMAP4 (11747438_a_at) / Fold change /veh GIMAP4 (11747438_a_at) / RFU KRT8 (11758183_x_at) / Fold change /veh KRT8 (11758183_x_at) / RFU CNN1 (11734310_a_at) / Fold change /veh CNN1 (11734310_a_at) / RFU VPS37D (11726825_at) / Fold change /veh VPS37D (11726825_at) / RFU C10orf10 (11716522_x_at) / Fold change /veh C10orf10 (11716522_x_at) / RFU KIR2DL2 /// KIR2DL4 /// KIR2DL5A /// KIR2DL5B /// KIR2DS1 /// KIR2DS2 /// KIR2DS3 /// KIR2DS4 /// KIR3DL3 /// KIR3DL3 /// KIR3DS1 (11738374_at) / Fold change /veh KIR2DL2 /// KIR2DL4 /// KIR2DL5A /// KIR2DL5B /// KIR2DS1 /// KIR2DS2 /// KIR2DS3 /// KIR2DS4 /// KIR3DL3 /// KIR3DL3 /// KIR3DS1 (11738374_at) / RFU C1QL1 (11718748_at) / Fold change /veh C1QL1 (11718748_at) / RFU TMPRSS4 (11747572_a_at) / Fold change /veh TMPRSS4 (11747572_a_at) / RFU HAMP (11756126_x_at) / Fold change /veh HAMP (11756126_x_at) / RFU RNFT2 (11725882_a_at) / Fold change /veh RNFT2 (11725882_a_at) / RFU NR4A2 (11747474_a_at) / Fold change /veh NR4A2 (11747474_a_at) / RFU ABCC12 (11746883_a_at) / Fold change /veh ABCC12 (11746883_a_at) / RFU TMEM136 (11760407_x_at) / Fold change /veh TMEM136 (11760407_x_at) / RFU CLDN22 /// WWC2 (11732394_at) / Fold change /veh CLDN22 /// WWC2 (11732394_at) / RFU HLA-DPB1 (11760878_x_at) / Fold change /veh HLA-DPB1 (11760878_x_at) / RFU SPINT1 (11716480_a_at) / Fold change /veh SPINT1 (11716480_a_at) / RFU GAP43 (11754022_s_at) / Fold change /veh GAP43 (11754022_s_at) / RFU A4GNT (11735810_at) / Fold change /veh A4GNT (11735810_at) / RFU PRB3 (11715151_x_at) / Fold change /veh PRB3 (11715151_x_at) / RFU TUBB4B (11761932_at) / Fold change /veh TUBB4B (11761932_at) / RFU CAPN14 (11732068_a_at) / Fold change /veh CAPN14 (11732068_a_at) / RFU TMCC2 (11721928_a_at) / Fold change /veh TMCC2 (11721928_a_at) / RFU IRGQ (11745062_a_at) / Fold change /veh IRGQ (11745062_a_at) / RFU FAM174B (11720279_a_at) / Fold change /veh FAM174B (11720279_a_at) / RFU TMPRSS4 (11748680_a_at) / Fold change /veh TMPRSS4 (11748680_a_at) / RFU FAM212B (11763350_a_at) / Fold change /veh FAM212B (11763350_a_at) / RFU PLEKHG5 (11743358_a_at) / Fold change /veh PLEKHG5 (11743358_a_at) / RFU ZSCAN30 (11745921_a_at) / Fold change /veh ZSCAN30 (11745921_a_at) / RFU CMKLR1 (11741424_a_at) / Fold change /veh CMKLR1 (11741424_a_at) / RFU LOC101060620 /// MAPK8IP1 (11723275_at) / Fold change /veh LOC101060620 /// MAPK8IP1 (11723275_at) / RFU SPTSSB (11747773_x_at) / Fold change /veh SPTSSB (11747773_x_at) / RFU PRSS12 (11739890_at) / Fold change /veh PRSS12 (11739890_at) / RFU BIN1 (11741810_x_at) / Fold change /veh BIN1 (11741810_x_at) / RFU WNT11 (11732464_a_at) / Fold change /veh WNT11 (11732464_a_at) / RFU C10orf10 (11716521_a_at) / Fold change /veh C10orf10 (11716521_a_at) / RFU C5orf56 (11738089_at) / Fold change /veh C5orf56 (11738089_at) / RFU CYB561 (11721691_x_at) / Fold change /veh CYB561 (11721691_x_at) / RFU ANKRD19P (11752326_a_at) / Fold change /veh ANKRD19P (11752326_a_at) / RFU OR2T12 /// OR2T33 /// OR2T8 (11738714_s_at) / Fold change /veh OR2T12 /// OR2T33 /// OR2T8 (11738714_s_at) / RFU VCAN (11748164_a_at) / Fold change /veh VCAN (11748164_a_at) / RFU JSRP1 (11732532_at) / Fold change /veh JSRP1 (11732532_at) / RFU KRTAP10-11 (11738290_x_at) / Fold change /veh KRTAP10-11 (11738290_x_at) / RFU MYO3A (11730013_a_at) / Fold change /veh MYO3A (11730013_a_at) / RFU EBF3 (11725865_a_at) / Fold change /veh EBF3 (11725865_a_at) / RFU CAMK2N1 (11719241_x_at) / Fold change /veh CAMK2N1 (11719241_x_at) / RFU C5orf56 (11738088_a_at) / Fold change /veh C5orf56 (11738088_a_at) / RFU OLFML3 (11715873_a_at) / Fold change /veh OLFML3 (11715873_a_at) / RFU LOC100653217 /// NTM (11731650_a_at) / Fold change /veh LOC100653217 /// NTM (11731650_a_at) / RFU MAPK11 (11762145_a_at) / Fold change /veh MAPK11 (11762145_a_at) / RFU FIZ1 (11724087_x_at) / Fold change /veh FIZ1 (11724087_x_at) / RFU OASL (11726364_x_at) / Fold change /veh OASL (11726364_x_at) / RFU SOX15 (11748057_x_at) / Fold change /veh SOX15 (11748057_x_at) / RFU CD79A (11719716_a_at) / Fold change /veh CD79A (11719716_a_at) / RFU HIST1H1D (11736915_at) / Fold change /veh HIST1H1D (11736915_at) / RFU CASKIN2 (11723855_a_at) / Fold change /veh CASKIN2 (11723855_a_at) / RFU LOC730098 (11760151_x_at) / Fold change /veh LOC730098 (11760151_x_at) / RFU OR4N2 (11742367_at) / Fold change /veh OR4N2 (11742367_at) / RFU PRRT2 (11749266_a_at) / Fold change /veh PRRT2 (11749266_a_at) / RFU SNX32 (11753110_a_at) / Fold change /veh SNX32 (11753110_a_at) / RFU CDHR5 (11726645_a_at) / Fold change /veh CDHR5 (11726645_a_at) / RFU RCAN1 (11760418_a_at) / Fold change /veh RCAN1 (11760418_a_at) / RFU FAM167A (11723789_a_at) / Fold change /veh FAM167A (11723789_a_at) / RFU FAM26E (11764081_at) / Fold change /veh FAM26E (11764081_at) / RFU ISYNA1 (11749810_s_at) / Fold change /veh ISYNA1 (11749810_s_at) / RFU ACY1 (11761880_at) / Fold change /veh ACY1 (11761880_at) / RFU 11764098_at / Fold change /veh 11764098_at / RFU SAMD14 (11745864_x_at) / Fold change /veh SAMD14 (11745864_x_at) / RFU NPB (11741838_a_at) / Fold change /veh NPB (11741838_a_at) / RFU TMPRSS6 (11731388_a_at) / Fold change /veh TMPRSS6 (11731388_a_at) / RFU KRTAP10-2 (11738614_at) / Fold change /veh KRTAP10-2 (11738614_at) / RFU ARHGAP8 /// PRR5-ARHGAP8 (11727945_x_at) / Fold change /veh ARHGAP8 /// PRR5-ARHGAP8 (11727945_x_at) / RFU KRTAP5-7 /// NADSYN1 (11734609_at) / Fold change /veh KRTAP5-7 /// NADSYN1 (11734609_at) / RFU RASL12 (11751679_a_at) / Fold change /veh RASL12 (11751679_a_at) / RFU CDKN2B (11736163_a_at) / Fold change /veh CDKN2B (11736163_a_at) / RFU PRF1 (11729649_at) / Fold change /veh PRF1 (11729649_at) / RFU, ZNF638 /// ZNF638-IT1 / Fold change vs veh, ZNF638 /// ZNF638-IT1 / RFU, PANK3 / Fold change vs veh, PANK3 / RFU, SH3YL1 / Fold change vs veh, SH3YL1 / RFU, ZEB2 / Fold change vs veh, ZEB2 / RFU, NRIP1 / Fold change vs veh, NRIP1 / RFU, PTTG1IP / Fold change vs veh, PTTG1IP / RFU, CAPN2 / Fold change vs veh, CAPN2 / RFU, MED14 / Fold change vs veh, MED14 / RFU, SNORA58 / Fold change vs veh, SNORA58 / RFU, C1orf63 / Fold change vs veh, C1orf63 / RFU, LRRFIP1 / Fold change vs veh, LRRFIP1 / RFU, NDUFAF7 / Fold change vs veh, NDUFAF7 / RFU, SLC12A2 / Fold change vs veh, SLC12A2 / RFU, IBTK / Fold change vs veh, IBTK / RFU, ESF1 / Fold change vs veh, ESF1 / Fold change vs veh, TMEM50B / RFU, TAOK1 / Fold change vs veh, TAOK1 / RFU, ACBD3 / Fold change vs veh, ACBD3 / RFU, TMA16 / Fold change vs veh, TMA16 / RFU, RWDD3 / Fold change vs veh, RWDD3 / RFU, BCAT1 / Fold change vs veh, BCAT1 / RFU, EDEM3 / Fold change vs veh, EDEM3 / RFU, TMEM33 / Fold change vs veh, TMEM33 / RFU, WDR75 / Fold change vs veh, WDR75 / RFU, AHCTF1 / Fold change vs veh, AHCTF1 / RFU, TFRC / Fold change vs veh, TFRC / RFU, ZDHHC17 / Fold change vs veh, ZDHHC17 / RFU, NOM1 / Fold change vs veh, NOM1 / RFU, ARL8B / Fold change vs veh, ARL8B / RFU, ZBTB11 / Fold change vs veh, ZBTB11 / RFU, TAMM41 / Fold change vs veh, TAMM41 / RFU, KIAA1704 /// LOC100996395 / Fold change vs veh, KIAA1704 /// LOC100996395 / RFU, ING1 / Fold change vs veh, ING1 / RFU, TRMT61B / Fold change vs veh, TRMT61B / RFU, FUBP3 / Fold change vs veh, FUBP3 / RFU, TP53 / Fold change vs veh, TP53 / RFU, TNKS2 / Fold change vs veh, TNKS2 / RFU, ZFP14 / Fold change vs veh, ZFP14 / RFU, ACTR2 / Fold change vs veh, ACTR2 / RFU, PPP3R1 / Fold change vs veh, PPP3R1 / RFU, PIK3R1 / Fold change vs veh, PIK3R1 / RFU, HNRNPA1 / Fold change vs veh, HNRNPA1 / RFU, RNF170 / Fold change vs veh, RNF170 / RFU, ZNF28 / Fold change vs veh, ZNF28 / RFU, RNGTT / Fold change vs veh, RNGTT / RFU, OGT / Fold change vs veh, OGT / RFU, BRD1 / Fold change vs veh, BRD1 / RFU, MARS / Fold change vs veh, MARS / RFU, ZNF655 / Fold change vs veh, ZNF655 / RFU, FAHD1 / Fold change vs veh, FAHD1 / RFU, BDP1 / Fold change vs veh, BDP1 / RFU, LRRCC1 / Fold change vs veh, LRRCC1 / RFU, ARID1A / Fold change vs veh, ARID1A / RFU, ZNF146 / Fold change vs veh, ZNF146 / RFU, ZNF330 / Fold change vs veh, ZNF330 / RFU, GPN3 / Fold change vs veh, GPN3 / RFU, C9orf123 / Fold change vs veh, C9orf123 / RFU, N4BP2L2 / Fold change vs veh, N4BP2L2 / RFU, ARFIP1 / Fold change vs veh, ARFIP1 / RFU, FAM179B / Fold change vs veh, FAM179B / RFU, BCL10 / Fold change vs veh, BCL10 / RFU, UHRF1BP1L / Fold change vs veh, UHRF1BP1L / RFU, BET1 / Fold change vs veh, BET1 / RFU, CNOT2 / Fold change vs veh, CNOT2 / RFU, ZNF268 / Fold change vs veh, ZNF268 / Fold change vs veh, ZNF507 / RFU, DGCR2 / Fold change vs veh, DGCR2 / RFU, WDSUB1 / Fold change vs veh, WDSUB1 / Fold change vs veh, HSP90B1 /// MIR3652 / RFU, ADSS / Fold change vs veh, ADSS / RFU, GK / Fold change vs veh, GK / RFU, ZNF148 / Fold change vs veh, ZNF148 / RFU, TAF9 / Fold change vs veh, TAF9 / RFU, SLC1A5 / Fold change vs veh, SLC1A5 / RFU, SLMO2 / Fold change vs veh, SLMO2 / RFU, ABCC4 / Fold change vs veh, ABCC4 / RFU, LOC101060439 /// RAP1B / Fold change vs veh, LOC101060439 /// RAP1B / RFU, RFX7 / Fold change vs veh, RFX7 / RFU, GTPBP10 / Fold change vs veh, GTPBP10 / RFU, CNEP1R1 / Fold change vs veh, CNEP1R1 / RFU, BIVM-ERCC5 /// ERCC5 / Fold change vs veh, BIVM-ERCC5 /// ERCC5 / RFU, ILF3 / Fold change vs veh, ILF3 / RFU 11762660_at / Fold change /veh 11762660_at / RFU VCAN (11757783_s_at) / Fold change /veh VCAN (11757783_s_at) / RFU DDX43 (11728927_at) / Fold change /veh DDX43 (11728927_at) / RFU KRT8 (11758188_x_at) / Fold change /veh KRT8 (11758188_x_at) / RFU NKD1 (11759106_at) / Fold change /veh NKD1 (11759106_at) / RFU SRD5A1 (11742802_a_at) / Fold change /veh SRD5A1 (11742802_a_at) / RFU TPSAB1 /// TPSB2 (11721975_s_at) / Fold change /veh TPSAB1 /// TPSB2 (11721975_s_at) / RFU GSTM3 (11746129_a_at) / Fold change /veh GSTM3 (11746129_a_at) / RFU IL23R (11737362_x_at) / Fold change /veh IL23R (11737362_x_at) / RFU TMEM51 (11727254_a_at) / Fold change /veh TMEM51 (11727254_a_at) / RFU PIWIL2 (11732686_x_at) / Fold change /veh PIWIL2 (11732686_x_at) / RFU ORM1 (11744905_x_at) / Fold change /veh ORM1 (11744905_x_at) / RFU CCDC152 (11743942_at) / Fold change /veh CCDC152 (11743942_at) / RFU ECM1 (11717891_a_at) / Fold change /veh ECM1 (11717891_a_at) / RFU IL23R (11748794_a_at) / Fold change /veh IL23R (11748794_a_at) / RFU TNFAIP8L3 (11732012_x_at) / Fold change /veh TNFAIP8L3 (11732012_x_at) / RFU MBOAT4 (11741988_at) / Fold change /veh MBOAT4 (11741988_at) / RFU 11764193_at / Fold change /veh 11764193_at / RFU TMEM53 (11763286_at) / Fold change /veh TMEM53 (11763286_at) / RFU MAGEB2 (11727129_at) / Fold change /veh MAGEB2 (11727129_at) / RFU TMEM200A (11744735_a_at) / Fold change /veh TMEM200A (11744735_a_at) / RFU CCDC152 (11751479_a_at) / Fold change /veh CCDC152 (11751479_a_at) / RFU FAM211A (11726209_a_at) / Fold change /veh FAM211A (11726209_a_at) / RFU RGS16 (11746705_a_at) / Fold change /veh RGS16 (11746705_a_at) / RFU VCAN (11755009_s_at) / Fold change /veh VCAN (11755009_s_at) / RFU RHOB (11743442_s_at) / Fold change /veh RHOB (11743442_s_at) / RFU RGS16 (11720943_a_at) / Fold change /veh RGS16 (11720943_a_at) / RFU RGS16 (11720944_at) / Fold change /veh RGS16 (11720944_at) / RFU, VPS4B / Fold change vs veh, VPS4B / RFU, CREB1 / Fold change vs veh, CREB1 / RFU, DNAJC13 / Fold change vs veh, DNAJC13 / RFU, GNAQ / Fold change vs veh, GNAQ / RFU, CDK5R1 / Fold change vs veh, CDK5R1 / RFU, ZRANB3 / Fold change vs veh, ZRANB3 / RFU, CUL4A / Fold change vs veh, CUL4A / RFU, CCNY / Fold change vs veh, CCNY / RFU, UFL1 / Fold change vs veh, UFL1 / RFU, COG3 / Fold change vs veh, COG3 / RFU, DIAPH2 / Fold change vs veh, DIAPH2 / RFU, SKA2 / Fold change vs veh, SKA2 / RFU, AFF3 / Fold change vs veh, AFF3 / RFU, LMF1 / Fold change vs veh, LMF1 / RFU, IPO11 / Fold change vs veh, IPO11 / RFU, DFFB / Fold change vs veh, DFFB / RFU, FOXP1 / Fold change vs veh, FOXP1 / RFU, CARD8 / Fold change vs veh, CARD8 / RFU, STRN3 / Fold change vs veh, STRN3 / RFU, ADK / Fold change vs veh, ADK / RFU, RASSF2 / Fold change vs veh, RASSF2 / RFU, WIPF1 / Fold change vs veh, WIPF1 / RFU, LARP1B / Fold change vs veh, LARP1B / RFU, RASA1 / Fold change vs veh, RASA1 / RFU, RB1 / Fold change vs veh, RB1 / RFU, PPFIA1 / Fold change vs veh, PPFIA1 / RFU, MAT2A / Fold change vs veh, MAT2A / RFU, CCT5 / Fold change vs veh, CCT5 / RFU, WDR92 / Fold change vs veh, WDR92 / RFU, CUX1 / Fold change vs veh, CUX1 / RFU, TTC7A / Fold change vs veh, TTC7A / RFU, TMEM135 / Fold change vs veh, TMEM135 / RFU, DEPTOR / Fold change vs veh, DEPTOR / RFU, CPM / Fold change vs veh, CPM / RFU, DNAJB6 / Fold change vs veh, DNAJB6 / RFU, CACNA2D3 / Fold change vs veh, CACNA2D3 / RFU, DTX4 / Fold change vs veh, DTX4 / RFU, TFCP2 / Fold change vs veh, TFCP2 / RFU, GMCL1 /// GMCL1P1 / Fold change vs veh, GMCL1 /// GMCL1P1 / RFU, AEBP2 / Fold change vs veh, AEBP2 / RFU, SNHG1 /// SNORD22 /// SNORD25 /// SNORD26 /// SNORD27 /// SNORD28 /// SNORD29 /// SNORD31 / Fold change vs veh, SNHG1 /// SNORD22 /// SNORD25 /// SNORD26 /// SNORD27 /// SNORD28 /// SNORD29 /// SNORD31 / Fold change (Aza/veh), C12orf56 (ProbeSet 11735607_a_at) / Fold change (ACY-1035/veh), C12orf56 (ProbeSet 11735607_a_at) / Fold change (Aza/veh), FGFR1OP (ProbeSet 11751329_s_at) / Fold change (ACY-1035/veh), FGFR1OP (ProbeSet 11751329_s_at) / Fold change (Aza/veh), VPS36 (ProbeSet 11739960_a_at) / Fold change (ACY-1035/veh), VPS36 (ProbeSet 11739960_a_at) / RFU SYPL1 (11715823_x_at) / Fold change /veh SYPL1 (11715823_x_at) / RFU IGFBP7 (11715501_s_at) / Fold change /veh IGFBP7 (11715501_s_at) / RFU REEP3 (11722064_at) / Fold change /veh REEP3 (11722064_at) / RFU IGLL1 (11728026_x_at) / Fold change /veh IGLL1 (11728026_x_at): dose or concentration left out as unconfirmed
Details: MV-4-11 cells, 48 hours

Structure (SMILES): Nc1ncn([C@@H]2O[C@H](CO)[C@@H](O)[C@H]2O)c(=O)n1 [azacitidine]
- RFU PODN (11730768_x_at): 27.35 RFU
